# Tested on: child with PMM2-CDG
# Assay: Single patient (P1) study: clinical efficacy (ICARS, NPCRS, BMI, weight)
# Type: in vivo, human
# Conditions: same patient, five months acetazolamide before epalrestat; from 66
# Method: Prospectively collected clinical and laboratory data in 24 PMM2-CDG patients: The genetic, laboratory, metabolic, and clinical data of 24 PMM2-CDG patients were evaluated (TABLES 2A and 2B). Disease severity was assessed by Nijmegen Pediatric CDG Rating Scale (NPCRS), (most severe=82; mild (0-14), moderate (15-25), severe (>26)) (Achouitar et al., J Inherit Metab Dis 34:923-927, 2011; and Martinez-Monseny et al., Ann Neurol 85:740-751, 2019). Patient P1 and twin patients P4 and P5 also were discussed elsewhere (Qian et al., JIMD Rep 56:27-33, 2020; and Jaeken et al., Ped Res 14:179, 1980). P1, enrolled in a single IND clinical trial, was additionally evaluated by the International cooperative ataxia rating scale (ICARS) (Trouillas et al., J Neurol Sci 145:205-211, 1997), which assesses limb ataxia, dysarthria, posture and gait disturbances, and oculomotor disorders (0=normal; 100=most severe). Urinary polyols including sorbitol and mannitol were analyzed by GC/MS in 23 out of the 24 PMM2-CDG patients (patient P6 was deceased). In addition, functional in vitro data was collected from the fibroblasts of P1-P6, P8, P10, P17, P19, and P24.
# Study design: An open label, single patient (P1) compassionate use study was designed to assess the safety and tolerability of oral epalrestat therapy in a child with PMM2-CDG.
# Patient assessment: Prior to the first dose of epalrestat and at 1, 2, 3, 6, 8, 9, 12 months during treatment, concomitant medications and vital signs were recorded and the patient was evaluated using the NPCRS. In addition, blood was drawn for serum chemistry, hematology, and plasma levels of epalrestat. Urine was collected for polyol measurement at baseline and twice over the course of 12 months of therapy.
# Drug administration: Epalrestat was administered orally, 3 times per day (TID) before meals in a divided dose (0.8 mg/kg/day; 5 mg TID) of epalrestat (Ono Pharmaceuticals, Osaka, Japan) starting on Day 1 of the study.
# Safety and efficacy: Safety measures included vital signs, change in CBC, liver function (INR, bilirubin, transaminases, and albumin) in blood, change in liver elastography, and following the pharmacokinetic profile of epalrestat. The efficacy of epalrestat was studied by clinical follow up (physical exam, NPCRS, ICARS), standard laboratory tests, and transferrin glycoform analysis by mass spectrometry.
smiles,measurement,value
CC(=O)Nc1nnc(S(N)(=O)=O)s1 [acetazolamide],ICARS score,56
